Values after ≈ are worked out from the molar mass of the structure shown.
What was measured:
Type in all cases: functional
Enterococcus faecalis = assay: Antibacterial activity against Enterococcus faecalis after 24 hrs
Staphylococcus aureus [1] = assay: Antibacterial activity against Staphylococcus aureus ATCC 25923 after 24 hrs; conditions: ATCC 25923, 24 h
Staphylococcus aureus [2] = assay: Antibacterial activity against Staphylococcus aureus ATCC 29213 after 24 hrs; conditions: ATCC 29213, 24 h
Staphylococcus aureus [3] = assay: Antibacterial activity against methicillin-resistant Staphylococcus aureus after 24 hrs
Pseudomonas aeruginosa [4] = assay: Antibacterial activity against Pseudomonas aeruginosa after 24 hrs
Pseudomonas aeruginosa [5] = assay: Antibacterial activity against Pseudomonas aeruginosa ATCC 27853 after 24 hrs; conditions: ATCC 27853, 24 h
Escherichia coli [6] = assay: Antibacterial activity against Escherichia coli ATCC 25922 after 24 hrs; conditions: ATCC 25922, 24 h
Klebsiella pneumoniae = assay: Antibacterial activity against Klebsiella pneumoniae after 24 hrs
Staphylococcus aureus [7] = assay: Antibacterial activity against Staphylococcus aureus
Bacillus subtilis = assay: Antibacterial activity against Bacillus subtilis
Escherichia coli [8] = assay: Antibacterial activity against Escherichia coli
Pseudomonas aeruginosa [9] = assay: Antibacterial activity against Pseudomonas aeruginosa
Candida albicans = assay: Antifungal activity against Candida albicans

Row | MIC (Staphylococcus aureus [7]) [µg/mL] | MIC (Bacillus subtilis) [µg/mL] | MIC (Escherichia coli [8]) [µg/mL] | MIC (Pseudomonas aeruginosa [9]) [µg/mL] | MIC (Candida albicans) [µg/mL] | SMILES | MIC (Enterococcus faecalis) [µM] | MIC (Staphylococcus aureus [1]) [µM] | MIC (Staphylococcus aureus [2]) [µM] | MIC (Staphylococcus aureus [3]) [µM] | MIC (Pseudomonas aeruginosa [4]) [µM] | MIC (Pseudomonas aeruginosa [5]) [µM] | MIC (Escherichia coli [6]) [µM] | MIC (Klebsiella pneumoniae) [µM]
1 | – | – | – | – | – | COc1cc(/C=C(\C#N)n2cc([N+](=O)[O-])nc2C)c2c(c1OCc1ccc([N+](=O)[O-])cc1)CN1CCc3cc4c(cc3C1C2)OCO4 (centres undefined) | 3 to 1020 (≈ 1.91 to 650 µg/mL) | 3 to 1020 (≈ 1.91 to 650 µg/mL) | 3 to 1020 (≈ 1.91 to 650 µg/mL) | 3 to 1020 (≈ 1.91 to 650 µg/mL) | 3 to 1020 (≈ 1.91 to 650 µg/mL) | 3 to 1020 (≈ 1.91 to 650 µg/mL) | 3 to 1020 (≈ 1.91 to 650 µg/mL) | 3 to 1020 (≈ 1.91 to 650 µg/mL)
2 | 0.25 to 0.5 (≈ 0.644 to 1.29 µM) | 0.25 to 0.5 (≈ 0.644 to 1.29 µM) | 0.25 to 0.5 (≈ 0.644 to 1.29 µM) | 0.25 to 0.5 (≈ 0.644 to 1.29 µM) | 0.25 to 0.5 (≈ 0.644 to 1.29 µM) | CC(=O)N1N=C(Cn2c([N+](=O)[O-])cnc2C)OC1(C)c1ccc([N+](=O)[O-])cc1 (centres undefined) | – | – | – | – | – | – | – | –
3 | – | – | – | – | – | COc1cc(/C=C(\C#N)n2cc([N+](=O)[O-])nc2C)c2c(c1OCc1ccc(Cl)cc1Cl)CN1CCc3cc4c(cc3C1C2)OCO4 (centres undefined) | 3 to 1020 (≈ 1.98 to 674 µg/mL) | 3 to 1020 (≈ 1.98 to 674 µg/mL) | 3 to 1020 (≈ 1.98 to 674 µg/mL) | 3 to 1020 (≈ 1.98 to 674 µg/mL) | 3 to 1020 (≈ 1.98 to 674 µg/mL) | 3 to 1020 (≈ 1.98 to 674 µg/mL) | 3 to 1020 (≈ 1.98 to 674 µg/mL) | 3 to 1020 (≈ 1.98 to 674 µg/mL)
4 | 0.25 to 0.5 (≈ 0.7 to 1.4 µM) | 0.25 to 0.5 (≈ 0.7 to 1.4 µM) | 0.25 to 0.5 (≈ 0.7 to 1.4 µM) | 0.25 to 0.5 (≈ 0.7 to 1.4 µM) | 0.25 to 0.5 (≈ 0.7 to 1.4 µM) | CC(=O)N1N=C(Cn2c([N+](=O)[O-])cnc2C)OC1(C)c1ccc(C)cc1 (centres undefined) | – | – | – | – | – | – | – | –
5 | – | – | – | – | – | COc1cc(/C=C(\C#N)n2cc([N+](=O)[O-])nc2C)c2c(c1OCCO)CN1CCc3cc4c(cc3C1C2)OCO4 (centres undefined) | 3 to 1020 (≈ 1.64 to 557 µg/mL) | 3 to 1020 (≈ 1.64 to 557 µg/mL) | 3 to 1020 (≈ 1.64 to 557 µg/mL) | 3 to 1020 (≈ 1.64 to 557 µg/mL) | 3 to 1020 (≈ 1.64 to 557 µg/mL) | 3 to 1020 (≈ 1.64 to 557 µg/mL) | 3 to 1020 (≈ 1.64 to 557 µg/mL) | 3 to 1020 (≈ 1.64 to 557 µg/mL)
6 | – | – | – | – | – | CCOc1c(OC)cc(/C=C(\C#N)n2cc([N+](=O)[O-])nc2C)c2c1CN1CCc3cc4c(cc3C1C2)OCO4 (centres undefined) | 3 to 1020 (≈ 1.59 to 541 µg/mL) | 3 to 1020 (≈ 1.59 to 541 µg/mL) | 3 to 1020 (≈ 1.59 to 541 µg/mL) | 3 to 1020 (≈ 1.59 to 541 µg/mL) | 3 to 1020 (≈ 1.59 to 541 µg/mL) | 3 to 1020 (≈ 1.59 to 541 µg/mL) | 3 to 1020 (≈ 1.59 to 541 µg/mL) | 3 to 1020 (≈ 1.59 to 541 µg/mL)
7 | – | – | – | – | – | COc1cc(/C=C(\C#N)n2cc([N+](=O)[O-])nc2C)c2c(c1OCC#N)CN1CCc3cc4c(cc3C1C2)OCO4 (centres undefined) | 3 to 1020 (≈ 1.62 to 552 µg/mL) | 3 to 1020 (≈ 1.62 to 552 µg/mL) | 3 to 1020 (≈ 1.62 to 552 µg/mL) | 3 to 1020 (≈ 1.62 to 552 µg/mL) | 3 to 1020 (≈ 1.62 to 552 µg/mL) | 3 to 1020 (≈ 1.62 to 552 µg/mL) | 3 to 1020 (≈ 1.62 to 552 µg/mL) | 3 to 1020 (≈ 1.62 to 552 µg/mL)
8 | – | – | – | – | – | CCCCOc1c(OC)cc(/C=C(\C#N)n2cc([N+](=O)[O-])nc2C)c2c1CN1CCc3cc4c(cc3C1C2)OCO4 (centres undefined) | 3 to 1020 (≈ 1.67 to 569 µg/mL) | 3 to 1020 (≈ 1.67 to 569 µg/mL) | 3 to 1020 (≈ 1.67 to 569 µg/mL) | 3 to 1020 (≈ 1.67 to 569 µg/mL) | 3 to 1020 (≈ 1.67 to 569 µg/mL) | 3 to 1020 (≈ 1.67 to 569 µg/mL) | 3 to 1020 (≈ 1.67 to 569 µg/mL) | 3 to 1020 (≈ 1.67 to 569 µg/mL)
9 | – | – | – | – | – | COc1cc(/C=C(\C#N)n2cc([N+](=O)[O-])nc2C)c2c(c1OCc1cccc(Cl)c1)CN1CCc3cc4c(cc3C1C2)OCO4 (centres undefined) | 3 to 1020 (≈ 1.88 to 639 µg/mL) | 3 to 1020 (≈ 1.88 to 639 µg/mL) | 3 to 1020 (≈ 1.88 to 639 µg/mL) | 3 to 1020 (≈ 1.88 to 639 µg/mL) | 3 to 1020 (≈ 1.88 to 639 µg/mL) | 3 to 1020 (≈ 1.88 to 639 µg/mL) | 3 to 1020 (≈ 1.88 to 639 µg/mL) | 3 to 1020 (≈ 1.88 to 639 µg/mL)
10 | – | – | – | – | – | CCCCCCCCCCOc1c(OC)cc(/C=C(\C#N)n2cc([N+](=O)[O-])nc2C)c2c1CN1CCc3cc4c(cc3C1C2)OCO4 (centres undefined) | 3 to 1020 (≈ 1.93 to 655 µg/mL) | 3 to 1020 (≈ 1.93 to 655 µg/mL) | 3 to 1020 (≈ 1.93 to 655 µg/mL) | 3 to 1020 (≈ 1.93 to 655 µg/mL) | 3 to 1020 (≈ 1.93 to 655 µg/mL) | 3 to 1020 (≈ 1.93 to 655 µg/mL) | 3 to 1020 (≈ 1.93 to 655 µg/mL) | 3 to 1020 (≈ 1.93 to 655 µg/mL)
11 | 0.25 to 0.5 (≈ 0.728 to 1.46 µM) | 0.25 to 0.5 (≈ 0.728 to 1.46 µM) | 0.25 to 0.5 (≈ 0.728 to 1.46 µM) | 0.25 to 0.5 (≈ 0.728 to 1.46 µM) | 0.25 to 0.5 (≈ 0.728 to 1.46 µM) | CC(=O)N1N=C(Cn2c([N+](=O)[O-])cnc2C)OC1(C)c1ccccc1 (centres undefined) | – | – | – | – | – | – | – | –
12 | – | – | – | – | – | C#CCOc1c(OC)cc(/C=C(\C#N)n2cc([N+](=O)[O-])nc2C)c2c1CN1CCc3cc4c(cc3C1C2)OCO4 (centres undefined) | 3 to 1020 (≈ 1.62 to 551 µg/mL) | 3 to 1020 (≈ 1.62 to 551 µg/mL) | 3 to 1020 (≈ 1.62 to 551 µg/mL) | 3 to 1020 (≈ 1.62 to 551 µg/mL) | 3 to 1020 (≈ 1.62 to 551 µg/mL) | 3 to 1020 (≈ 1.62 to 551 µg/mL) | 3 to 1020 (≈ 1.62 to 551 µg/mL) | 3 to 1020 (≈ 1.62 to 551 µg/mL)
13 | – | – | – | – | – | COc1ccc2cc3[n+](cc2c1OC)CCc1cc2c(cc1-3)OCO2 [BERBERINE] | 11 to 688 | 11 to 688 | 11 to 688 | 11 to 688 | 11 to 688 | 11 to 688 | 11 to 688 | 11 to 688
14 | 1.56 to 3.12 (≈ 3.22 to 6.44 µM) | 1.56 to 3.12 (≈ 3.22 to 6.44 µM) | 1.56 to 3.12 (≈ 3.22 to 6.44 µM) | 1.56 to 3.12 (≈ 3.22 to 6.44 µM) | – | NC[C@H]1O[C@H](O[C@H]2[C@H](O)[C@@H](O[C@H]3O[C@H](CO)[C@@H](O)[C@H](N)[C@H]3O)[C@H](N)C[C@@H]2N)[C@H](O)[C@@H](O)[C@@H]1O [KANAMYCIN] | – | – | – | – | – | – | – | –

Source: ChEMBL document CHEMBL4304773, “Nitroimidazole-containing compounds and their antibacterial and antitubercular activities” (2019)
